Biological target: P2Y12 receptor (Homo sapiens, UniProt Q9H244)
Test: Inhibition of [33P]2MeS-ADP binding to washed human platelet membranes (Assay 1)
Set-up: the P2Y12 receptor, which is found on the surface of platelets; tissue Interstate Blood bank, Memphis, Tenn; host or cells: human platelets from platelet rich plasma
Conditions: for inhibition at 10 µM: highest concentration tested 10 μM; for IC50: washed human platelet membranes
Method: 1. Inhibition of [^33P]2MeS-ADP Binding to Washed Human Platelet Membranes. The ability of a test compound to bind to the P2Y12 receptor was evaluated in a platelet membrane binding assay. In this competitive binding assay, the test compound competed against a radiolabelled agonist for binding to the P2Y12 receptor, which is found on the surface of platelets. Inhibition of binding of the labeled material was measured and correlated to the amount and potency of the test compound. Data from this assay are presented in Table F. Platelet rich plasma (“PRP”) was obtained from the Interstate Blood bank, Memphis, Tenn. Platelet rich plasma was prepared from blood units collected in ACD ((prepared by (1) combining: 2.5 g sodium citrate (Sigma S-4641); 1.5 g citric acid (Sigma C-0706); and, 2.0 g dextrose (Sigma G-7528); (2) bringing pH to 4.5; and (3) adding water to bring volume to 100 mL) and using the light spin protocol; this protocol involves centrifugation at room temperature for approximately 20 minutes at speeds up to 160×g. Platelet rich plasma is supplied in units of approximately 200 ml. Each unit is distributed into four 50 mL polypropylene conical tubes for centrifugation, Blood from each donor is maintained separately.
The 50 mL tubes were centrifuged for 15 minutes at 1100 rpm in Sorvall RT6000D (with H1000B rotor). Internal centrifuge temperature was maintained at approximately room temperature (22-24° C.). This spin pelleted cellular components remaining from the PRP preparation. The supernatant was decanted into fresh 50 mL tubes. To avoid carry over of cellular components following the room temperature centrifugation, approximately 5 mL of PRP was left in the tube and discarded. The tubes were capped and inverted 2-3 times and allowed to stand at room temperature for at least 15 minutes following inversion.
Optionally, a Coulter Counter may be used to count platelets from the resting samples during the resting phase. Normal human platelet counts are expected to range from 200,000 to 400,000 per μL of PRP supernatant.
The 50 mL tubes containing PRP supernatant were centrifuged for 15 minutes at 2300-2400 rpm to loosely pellet the platelets. The supernatant from this spin was decanted immediately into a clean cell culture bottle (Corning bottle) and saved in case further centrifugation was needed. The pellet of each tube was resuspended in 2-4 mL of Wash buffer (pH 6.5) (1 L prepared new daily—134 mM NaCl (Sigma S-5150); 3 mM KCl (Sigma P-9333); 1 mM CaCl2 (JT Baker 1311-01); 2 mM MgCl2 (Sigma M-2670); 5 mM glucose (EM 4074-2); 0.3 mM NaH2PO4 (Sigma S-9638)/12 mM NaHCO3 (J T Baker 3506-01); 5 mM HEPES pH 7.4 (Gibco 12379-012); 0.35% BSA (Sigma A-7906); 330 mg Heparin (bovine lung, Sigma H-4898); and 30 mL of ACD) by repeated gentle aspiration using disposable polypropylene sample pipettes.
Wash buffer (pH 6.5) was added to each tube to bring the volume to approximately 40 mL. Each tube was incubated for at least 15 minutes at 37° C.
The tubes were then centrifuged again for 15 minutes at 2300-2400 rpm to loosely pellet the platelets. The supernatant was decanted and discarded. The pellet was resuspended in 2-4 mL of Assay buffer (pH 7.4) (1 L volume—134 mM NaCl; 3 mM KCl; 1 mM CaCl2; 2 mM MgCl2; 5 mM glucose; 0.3 mM NaH2PO4/12 mM NaHCO3; 5 mM HEPES pH 7.4; and 0.35% BSA) by repeated aspiration using disposable polypropylene sample pipettes.
The pooled platelet preparation was counted using a Coulter Counter. The final concentration of platelets was brought to 1×10^6 per μL using Assay buffer pH 7.4. The platelets were rested for a minimum of 45 minutes at 37° C. before use in the assay.
In one embodiment, the compounds were tested in 96-well microtiter filterplates (Millipore Multiscreen-FB opaque plates, #MAFBNOB50). These plates were used in the assay and pre-wet with 50 μL of Assay buffer pH 7.4 then filtered through completely with a Millipore plate vacuum. […]

Sequence of P2Y12 receptor (Q9H244 whole entry): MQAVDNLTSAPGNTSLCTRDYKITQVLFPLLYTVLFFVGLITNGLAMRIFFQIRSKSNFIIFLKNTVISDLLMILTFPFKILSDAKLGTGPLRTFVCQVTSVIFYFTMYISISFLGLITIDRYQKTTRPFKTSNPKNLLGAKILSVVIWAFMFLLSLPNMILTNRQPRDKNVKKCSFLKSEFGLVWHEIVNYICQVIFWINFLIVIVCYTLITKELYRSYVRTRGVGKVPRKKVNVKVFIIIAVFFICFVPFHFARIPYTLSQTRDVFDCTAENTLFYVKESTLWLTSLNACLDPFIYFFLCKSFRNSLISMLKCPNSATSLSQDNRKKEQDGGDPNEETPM

CCc1cc2c(N3CCN(C(=O)Cc4ccccc4)CC3)nc(NCc3cccc(F)c3)nc2s1 [Example 14, 6-Ethyl-N-(3-fluorobenzyl)-4-[4-(phenylacetyl)piperazin-1-yl]thieno[2,3-d]pyrimidin-2-amine]
inhibition at 10 µM: 39.9% | IC50: > 10 µM

CCc1cc2c(N3CCN(C(=O)Cc4ccccc4)CC3)nc(NCc3ccccc3)nc2s1 [Example 15, N-benzyl-6-ethyl-4-[4-(phenylacetyl)piperazin-1-yl]thieno[2,3-d]pyrimidin-2-amine]
inhibition at 10 µM: 44% | IC50: > 10 µM

Source: patent publication US20080194590A1, “4-Piperazinylthieno [2,3-D] Pyrimidine Compounds as Platelet Aggregation Inhibitors” (Pfizer Inc, priority 2005, published 2008)
